{
  "source": "patent US8476461B2",
  "about": "“Dipyrromethene-boron hydrophilic fluorescent compounds” (Centre National de la Recherche Scientifique (C.N.R.S.), priority 2008, dated 2013)",
  "key": {"[1]": {"test": "Water solubility and hydrophilic nature", "format": "physicochemical", "details": "for solubility in water (in words): water at pH=7, in carboxylate form"}, "[2]": {"test": "Optical / fluorescence properties (absorption, emission, extinction coefficient, quantum yield, lifetime)", "format": "physicochemical"}, "[3]": {"details": "asterisk: in water and PBS buffer"}},
  "note": "Marks after values point to notes of the source that are not given here.",
  "data": [
    {"smiles": "COCCOCC#C[B-]1(C#CCOCCOC)n2c(/C=C/c3ccc(OCCOCCOC)cc3)cc(C)c2C(c2ccc(C(=O)O)cc2)=C2C(C)=CC(C)=[N+]21", "note": "[Ia-12]", "values": [
      {"measurement": "water-soluble (in words)", "setting": "[1]", "result": "water-soluble"},
      {"measurement": "solubility in water (in words)", "setting": "[1]", "result": "soluble in water"},
      {"measurement": "Φ", "setting": "[2]; [3]", "result": "70* %"},
      {"measurement": "ε", "setting": "[2]; [3]", "result": "70000* M^−1 cm^−1"},
      {"measurement": "λabs", "setting": "[2]; [3]", "result": "564* nm"},
      {"measurement": "λem", "setting": "[2]; [3]", "result": "578* nm"}
    ]},
    {"smiles": "CCOC(=O)c1ccc(C2=C3C(C)=C(CC)C(C)=[N+]3[B-](C#CC[N+](C)(C)CCCS(=O)(=O)[O-])(C#CC[N+](C)(C)CCCS(=O)(=O)[O-])n3c(C)c(CC)c(C)c32)cc1", "note": "[Ic-2]", "values": [
      {"measurement": "Fluorescence λem", "setting": "[2]; EtOH", "result": 533, "unit": "nm"},
      {"measurement": "Fluorescence φ", "setting": "[2]; EtOH", "result": 45, "unit": "%"}
    ]},
    {"smiles": "CCC1=C(C)C2=C(c3ccc(I)cc3)c3c(C)c(CC)c(C)n3[B-](C#CCN(C)C)(C#CCN(C)C)[N+]2=C1C", "note": "[Ic-0]", "values": [
      {"measurement": "ζ (fluorescence lifetime)", "setting": "[2]; CH2Cl2", "result": 6.6, "unit": "ns"},
      {"measurement": "Fluorescence λem", "setting": "[2]; CH2Cl2, 6.1×10^−7 M", "result": 533, "unit": "nm"},
      {"measurement": "Fluorescence φ", "setting": "[2]; CH2Cl2, 6.1×10^−7 M", "result": 48, "unit": "%"}
    ]},
    {"smiles": "COCCOCC#C[B-]1(C#CCOCCOC)n2c(/C=C/c3ccc(OCCOCCOC)cc3)cc(C)c2C(c2ccc(C(=O)O)cc2)=C2C(C)=CC(/C=C/c3ccc(OCCOCCOC)cc3)=[N+]21", "note": "[Ia-11]", "values": [
      {"measurement": "Φ", "setting": "[2]; in dichloromethane", "result": 74, "unit": "%"},
      {"measurement": "ε", "setting": "[2]; in dichloromethane", "result": 118000, "unit": "M⁻¹ cm⁻¹"},
      {"measurement": "λabs", "setting": "[2]; in dichloromethane", "result": 647, "unit": "nm"},
      {"measurement": "λem", "setting": "[2]; in dichloromethane", "result": 662, "unit": "nm"}
    ]},
    {"smiles": "COCCOCC#C[B-]1(C#CCOCCOC)n2c(/C=C/c3ccc(OCCOCCOC)cc3)cc(C)c2C(c2ccc(I)cc2)=C2C(C)=CC(/C=C/c3ccc(OCCOCCOC)cc3)=[N+]21", "note": "[Ia-3]", "values": [
      {"measurement": "Φ", "setting": "[2]; in dichloromethane", "result": 75, "unit": "%"},
      {"measurement": "ε", "setting": "[2]; in dichloromethane", "result": 126600, "unit": "M⁻¹ cm⁻¹"},
      {"measurement": "λabs", "setting": "[2]; in dichloromethane", "result": 646, "unit": "nm"},
      {"measurement": "λem", "setting": "[2]; in dichloromethane", "result": 371, "unit": "nm"}
    ]},
    {"smiles": "CCC1=C(C)C2=C(c3ccc(I)cc3)c3c(C)c(CC)c(C)n3[B-](C#CCOCCOC)(C#CCOCCOC)[N+]2=C1C", "note": "[Ia-2]", "values": [
      {"measurement": "Φ", "setting": "[2]; in dichloromethane", "result": 80, "unit": "%"},
      {"measurement": "ε", "setting": "[2]; in dichloromethane", "result": 82000, "unit": "M⁻¹ cm⁻¹"},
      {"measurement": "λabs", "setting": "[2]; in dichloromethane", "result": 522, "unit": "nm"},
      {"measurement": "λem", "setting": "[2]; in dichloromethane", "result": 488, "unit": "nm"}
    ]},
    {"smiles": "CCOC(=O)c1ccc(C2=C3C(C)=C(CC)C(C)=[N+]3[B-](C#CCOCCOC)(C#CCOCCOC)n3c(C)c(CC)c(C)c32)cc1", "note": "[Ia-6]", "values": [
      {"measurement": "Φ", "setting": "[2]; in dichloromethane", "result": 85, "unit": "%"},
      {"measurement": "ε", "setting": "[2]; in dichloromethane", "result": 80000, "unit": "M⁻¹ cm⁻¹"},
      {"measurement": "λabs", "setting": "[2]; in dichloromethane", "result": 522, "unit": "nm"},
      {"measurement": "λem", "setting": "[2]; in dichloromethane", "result": 488, "unit": "nm"}
    ]},
    {"smiles": "COCCOCC#C[B-]1(C#CCOCCOC)n2c(C)cc(C)c2C(c2ccc(C(=O)NCC(=O)O)cc2)=C2C(C)=CC(C)=[N+]21", "note": "[Ia-15]", "values": [
      {"measurement": "water-soluble (in words)", "setting": "[1]", "result": "water-soluble"},
      {"measurement": "Φ", "setting": "[2]; [3]", "result": "50* %"},
      {"measurement": "ε", "setting": "[2]; [3]", "result": "62000* M^−1 cm^−1"},
      {"measurement": "λabs", "setting": "[2]; [3]", "result": "495* nm"},
      {"measurement": "λem", "setting": "[2]; [3]", "result": "507* nm"},
      {"measurement": "Φ", "setting": "[2]; in dichloromethane", "result": 60, "unit": "%"},
      {"measurement": "ε", "setting": "[2]; in dichloromethane", "result": 67000, "unit": "M⁻¹ cm⁻¹"},
      {"measurement": "λabs", "setting": "[2]; in dichloromethane", "result": 501, "unit": "nm"},
      {"measurement": "λem", "setting": "[2]; in dichloromethane", "result": 511, "unit": "nm"}
    ]},
    {"smiles": "CCC1=C(C)C2=C(c3ccc(C(=O)O)cc3)c3c(C)c(CC)c(C)n3[B-](C#CCOCCOC)(C#CCOCCOC)[N+]2=C1C", "note": "[Ia-10]", "values": [
      {"measurement": "water-soluble (in words)", "setting": "[1]", "result": "water-soluble"},
      {"measurement": "solubility in water (in words)", "setting": "[1]", "result": "soluble in water"},
      {"measurement": "Φ", "setting": "[2]; [3]", "result": "70* %"},
      {"measurement": "ε", "setting": "[2]; [3]", "result": "65000* M^−1 cm^−1"},
      {"measurement": "λabs", "setting": "[2]; [3]", "result": "517* nm"},
      {"measurement": "λem", "setting": "[2]; [3]", "result": "530* nm"}
    ]},
    {"smiles": "CCC1=C(C)C2=C(c3ccc(I)cc3)c3c(C)c(CC)c(C)n3[B-](C#CC[N+](C)(C)CCCS(=O)(=O)[O-])(C#CC[N+](C)(C)CCCS(=O)(=O)[O-])[N+]2=C1C", "note": "[Ic-1]", "values": [
      {"measurement": "water-soluble (in words)", "setting": "[1]", "result": "water-soluble"},
      {"measurement": "Fluorescence λem", "setting": "[2]; EtOH", "result": 532, "unit": "nm"},
      {"measurement": "Fluorescence φ", "setting": "[2]; EtOH", "result": 71, "unit": "%"},
      {"measurement": "fluorescence lifetime", "setting": "[2]; H2O", "result": 7.0, "unit": "ns"},
      {"measurement": "Fluorescence λem", "setting": "[2]; PBS buffer, 4.6×10^−7 M", "result": 530, "unit": "nm"},
      {"measurement": "Fluorescence φ", "setting": "[2]; PBS buffer, 4.6×10^−7 M", "result": 61, "unit": "%"},
      {"measurement": "Φ", "setting": "[2]; [3]", "result": "61* %"},
      {"measurement": "ε", "setting": "[2]; [3]", "result": "72000* M^−1 cm^−1"},
      {"measurement": "λabs", "setting": "[2]; [3]", "result": "519* nm"},
      {"measurement": "λem", "setting": "[2]; [3]", "result": "530* nm"}
    ]},
    {"smiles": "COCCOCC#C[B-]1(C#CCOCCOC)n2c(C)cc(C)c2C(c2ccc(C(=O)NCCN)cc2)=C2C(C)=CC(C)=[N+]21", "note": "[Ia-13]", "values": [
      {"measurement": "Φ", "setting": "[2]; in dichloromethane", "result": 30, "unit": "%"},
      {"measurement": "ε", "setting": "[2]; in dichloromethane", "result": 65000, "unit": "M⁻¹ cm⁻¹"},
      {"measurement": "λabs", "setting": "[2]; in dichloromethane", "result": 500, "unit": "nm"},
      {"measurement": "λem", "setting": "[2]; in dichloromethane", "result": 513, "unit": "nm"}
    ]},
    {"smiles": "CCOC(=O)CNC(=O)c1ccc(C2=C3C(C)=CC(C)=[N+]3[B-](C#CCOCCOC)(C#CCOCCOC)n3c(C)cc(C)c32)cc1", "note": "[Ia-14]", "values": [
      {"measurement": "Φ", "setting": "[2]; in dichloromethane", "result": 80, "unit": "%"},
      {"measurement": "ε", "setting": "[2]; in dichloromethane", "result": 84000, "unit": "M⁻¹ cm⁻¹"},
      {"measurement": "λabs", "setting": "[2]; in dichloromethane", "result": 501, "unit": "nm"},
      {"measurement": "λem", "setting": "[2]; in dichloromethane", "result": 511, "unit": "nm"}
    ]},
    {"smiles": "COCCOCC#C[B-]1(C#CCOCCOC)n2c(C)cc(C)c2C(c2ccc(I)cc2)=C2C(C)=CC(C)=[N+]21", "note": "[Ia-1]", "values": [
      {"measurement": "Φ", "setting": "[2]; in dichloromethane", "result": 65, "unit": "%"},
      {"measurement": "ε", "setting": "[2]; in dichloromethane", "result": 90000, "unit": "M⁻¹ cm⁻¹"},
      {"measurement": "λabs", "setting": "[2]; in dichloromethane", "result": 500, "unit": "nm"},
      {"measurement": "λem", "setting": "[2]; in dichloromethane", "result": 511, "unit": "nm"}
    ]},
    {"smiles": "CCC1=C(C)C2=C(c3ccc(C#Cc4ccc5ccc6c(C(=O)OCCOCCOC)ccc7ccc4c5c76)cc3)c3c(C)c(CC)c(C)n3[B-](C#CC[N+](C)(C)CCCS(=O)(=O)[O-])(C#CC[N+](C)(C)CCCS(=O)(=O)[O-])[N+]2=C1C", "note": "[Ic-3]", "values": [
      {"measurement": "Fluorescence λem", "setting": "[2]; EtOH", "result": 533, "unit": "nm"},
      {"measurement": "Fluorescence φ", "setting": "[2]; EtOH", "result": 39, "unit": "%"}
    ]},
    {"smiles": "COCCOCC#C[B-]1(C#CCOCCOC)n2c(C)cc(C)c2C(c2ccc(C(=O)O)cc2)=C2C(C)=CC(C)=[N+]21", "note": "[Ia-9]", "values": [
      {"measurement": "water-soluble (in words)", "setting": "[1]", "result": "water-soluble"},
      {"measurement": "solubility in water (in words)", "setting": "[1]", "result": "soluble in water"},
      {"measurement": "Φ", "setting": "[2]; [3]", "result": "60* %"},
      {"measurement": "ε", "setting": "[2]; [3]", "result": "74000* M^−1 cm^−1"},
      {"measurement": "λabs", "setting": "[2]; [3]", "result": "494* nm"},
      {"measurement": "λem", "setting": "[2]; [3]", "result": "506* nm"},
      {"measurement": "Φ", "setting": "[2]; in dichloromethane", "result": 50, "unit": "%"},
      {"measurement": "ε", "setting": "[2]; in dichloromethane", "result": 78500, "unit": "M⁻¹ cm⁻¹"},
      {"measurement": "λabs", "setting": "[2]; in dichloromethane", "result": 501, "unit": "nm"},
      {"measurement": "λem", "setting": "[2]; in dichloromethane", "result": 513, "unit": "nm"}
    ]}
  ]
}
